Experimental findings from ChEMBL document CHEMBL1781952, “Hippolides A-H, acyclic manoalide derivatives from the marine sponge Hippospongia lachne” (J Nat Prod, 2011) are described below.

In one experiment the test system is A549. In words: Cytotoxicity against human A549 cells after 48 hrs by MTT assay. As to conditions: A549, 48 h. The experiment is classed as functional, cell-based. Background: Tetrazolium assays rely on reduction of a dye to a coloured formazan, in cell work by metabolically active cells.
The next experiment concerns HeLa. In words: Cytotoxicity against human HeLa cells after 48 hrs by MTT assay. It counts as functional, cell-based.
For another experiment, the system named is HCT-116. In words: Cytotoxicity against human HCT116 cells after 48 hrs by MTT assay. The experiment is classed as functional, cell-based. The following applies: HCT-116, 48 h.
For experiment [1], the target named is T1, Tyrosine-protein phosphatase non-receptor type 1 (Homo sapiens, UniProt P18031).
T1 sequence (P18031 whole entry): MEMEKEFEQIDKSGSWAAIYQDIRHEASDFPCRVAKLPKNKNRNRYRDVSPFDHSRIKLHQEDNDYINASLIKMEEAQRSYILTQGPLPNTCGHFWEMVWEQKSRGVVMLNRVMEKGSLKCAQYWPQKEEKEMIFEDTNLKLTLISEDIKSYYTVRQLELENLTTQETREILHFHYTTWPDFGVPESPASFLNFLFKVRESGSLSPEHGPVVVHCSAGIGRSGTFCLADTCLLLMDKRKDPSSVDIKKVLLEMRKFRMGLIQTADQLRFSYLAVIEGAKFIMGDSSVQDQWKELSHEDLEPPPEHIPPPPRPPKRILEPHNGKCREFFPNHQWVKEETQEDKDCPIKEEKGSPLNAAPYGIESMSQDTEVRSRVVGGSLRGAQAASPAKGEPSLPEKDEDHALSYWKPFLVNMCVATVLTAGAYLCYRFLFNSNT
In words: Inhibition of recombinant PTP1B catalytic domain using pNPP as substrate assessed as pNP release.

The target in experiment [2] is Protein kinase C gamma type (Homo sapiens, UniProt P05129). In words: Binding affinity at PKCgamma after 1 hr by luminescent kinase assay.
Experiment [3] concerns the target Protein kinase C alpha type (Homo sapiens, UniProt P17252). In words: Binding affinity at PKCalpha after 1 hr by luminescent kinase assay.

As usually defined, the IC50 is the midpoint of a concentration-inhibition curve. With `CC(C)=CCC/C(C)=C/CC/C(C)=C/CCC1=CC[C@H]([C@@H]2CC(=O)NC2=O)O[C@@H]1O` [HIPPOLIDE A], the IC50 with A549 stood at 0.0522 µM; with HeLa it was 0.048 µM; in the experiment on HCT-116, 9.78 µM; in experiment [1], 23.8 µM; in experiment [2] it was 62 µM.
Turning to `CO[C@H]1O[C@@H]([C@@H]2CC(=O)NC2=O)CC=C1CC/C=C(\C)CC/C=C(\C)CCC=C(C)C` [HIPPOLIDE B], the figures for the IC50 (with HCT-116; in experiment [1]) were 35.1 µM and 39.7 µM, respectively.
In turn, `CC(C)=CCC/C(C)=C/CC/C(C)=C/CC/C(=C\C[C@H]1OC(=O)C=C1CO)CO` [HIPPOLIDE E] yielded an IC50 in experiment [3] of 40.3 µM.
